From article PMC9027599, “Secondary Metabolites in Basil, Bio-Insecticide, Inhibition Effect, and In Silico Molecular Docking against Proteolytic Enzymes of the Red Palm Weevil (Rhynchophorus ferrugineus)” (Plants, 2022)
One block for each compound: values may come before it.

Key:
[1] = tested on: proteases from the fourth larval instars of R. ferrugineus's midgut; assay: Specific protease inhibitors on midgut proteases (in vitro, Figure S2); type: biochemical, Rhynchophorus ferrugineus; settings: purified proteases of fourth larval instar midgut
Procedure: The activity of cysteine proteinase was determined in the fourth midgut instar larval homogenate of R. ferrugineus using the substrate Z-Phe-Arg-MNA [1]. Ten larvae were carefully removed, dissected, and rinsed repeatedly with NaCl solution (0.9% (w/v). The midgut instar was homogenized in protease assay buffer (500 µL) [5 mM DTT, 50 mM HEPS (N-2-Hydroxyethyl piperazin-N’-2-ethanesulfonic acid), pH 8.0, and 0.1 percent Triton X-100]. The reaction mixture was centrifuged for 30 min at 5000 rpm (Sigma 3k30 cooling centrifuge). The supernatant was utilized to determine the overall activity of proteolytic enzymes and the protein content. The supernatant (10 µL) was incubated for 30 min at 37 °C, and the volume was adjusted to 60 µL using assay buffer (pH 8) before adding 100 µL of substrate (0.5 mM). Prior to adding the substrate, 10 µL enzyme samples were pre-incubated with iodoacetic acid for 10 min. After 60 min at 37 °C of mixture incubation, the reaction was halted with the addition of 1.5 mL mersalyl (5 mM), 0.02 mg/mL fast garnet reactive solution, and 2% Tween 20. The reaction was centrifuged (at 5000 rpm, 6 min), then the absorbance was determined (at 520 nm). The activity of cysteine proteinase was measured using an ELISA quick plate reader at the OD520/60 min/mg of midgut protein. As a blank, a test mixture devoid of enzyme was used. […] The fourth homogenates of midgut larval were produced as reported before in the experiment for determining enzyme activity. […]
To learn more about the proteases found in homogenate preparations of R. ferrugineus fourth midgut larval instars, inhibitors from many different types of mechanisms were used. […] The absorbance of the enzymes was determined using an ELISA plate quick reader at various wavelengths. The percentage activity of the control enzyme for each inhibitor was evaluated for each enzyme. Protease activity was assayed in vivo in the R. ferrugineus fourth midgut larval instars, which were treated with 1, 10, 50, 100, 500, 1000, and 5000 mg/L of extracts or compounds, measured as described above. […]

cysteine protease [2] = assay: Cysteine protease activity of midgut from larvae treated 24 h (in vivo); set-up: species or system Rhynchophorus ferrugineus; settings: midgut of fourth instar larvae treated for 24 h
Procedure: The activity of cysteine proteinase was determined in the fourth midgut instar larval homogenate of R. ferrugineus using the substrate Z-Phe-Arg-MNA [1]. […] The reaction was centrifuged (at 5000 rpm, 6 min), then the absorbance was determined (at 520 nm). The activity of cysteine proteinase was measured using an ELISA quick plate reader at the OD520/60 min/mg of midgut protein. […]
As a control, an assay combination devoid of inhibitors was utilized. The absorbance of the enzymes was determined using an ELISA plate quick reader at various wavelengths. The percentage activity of the control enzyme for each inhibitor was evaluated for each enzyme. Protease activity was assayed in vivo in the R. ferrugineus fourth midgut larval instars, which were treated with 1, 10, 50, 100, 500, 1000, and 5000 mg/L of extracts or compounds, measured as described above. […]

total proteases [3] = assay: Total proteolytic activity of fourth instar midgut homogenate, azocasein (in vitro); type: biochemical, Rhynchophorus ferrugineus; settings: fourth instar larvae midgut homogenate
Procedure: (§1) The Lowry technique was used to determine the protein concentrations. Total proteolytic activity was determined in the fourth midgut instar larval (lab strain) homogenate of R. ferrugineus with azocasein in accordance with […] et al. […] [70]. […] Using a Sigma 3k30 cooling centrifuge, reserve homogenates prepared in a previous stage were spun at 5000 rpm for 30 min. Estimates of protein content and total proteolytic enzyme activity were made using the supernatants. The supernatant (10 μL) was incubated at 37 °C for 20 min, and the volume was adjusted to 60 μL using an assay buffer (pH 8), before adding azocasien (200 μL, 2% (w/v)). […] Following that, to activate the reaction, the substrate was introduced 20 min for Leupeptin, so the reaction was halted after 180 min at 37 °C with 300 μL of cool tri-chloroacetic acid (TCA) (10% (v/v). The mixture was centrifuged for 20 min at 5000 rpm (Sigma 3k30 cooling centrifuge). […] To learn more about the proteases found in homogenate preparations of R. ferrugineus fourth midgut larval instars, inhibitors from many different types of mechanisms were used. […] As a control, an assay combination devoid of inhibitors was utilized. The absorbance of the enzymes was determined using an ELISA plate quick reader at various wavelengths. The percentage activity of the control enzyme for each inhibitor was evaluated for each enzyme. […] Larvae were exposed for 24 h to leaf discs treated with extract and compounds.

total proteases [4] = assay: Total protease activity of midgut from larvae treated 24 h (in vivo); set-up: species or system Rhynchophorus ferrugineus; settings: midgut of fourth instar larvae treated for 24 h
Procedure: as §1

cysteine protease [5] = assay: Cysteine proteinase activity, Z-Phe-Arg-MNA (in vitro); type: biochemical, Rhynchophorus ferrugineus; settings: fourth instar larvae midgut homogenate
Procedure: The activity of cysteine proteinase was determined in the fourth midgut instar larval homogenate of R. ferrugineus using the substrate Z-Phe-Arg-MNA [1]. Ten larvae were carefully removed, dissected, and rinsed repeatedly with NaCl solution (0.9% (w/v). The midgut instar was homogenized in protease assay buffer (500 µL) [5 mM DTT, 50 mM HEPS (N-2-Hydroxyethyl piperazin-N’-2-ethanesulfonic acid), pH 8.0, and 0.1 percent Triton X-100]. The reaction mixture was centrifuged for 30 min at 5000 rpm (Sigma 3k30 cooling centrifuge). The supernatant was utilized to determine the overall activity of proteolytic enzymes and the protein content. The supernatant (10 µL) was incubated for 30 min at 37 °C, and the volume was adjusted to 60 µL using assay buffer (pH 8) before adding 100 µL of substrate (0.5 mM). Prior to adding the substrate, 10 µL enzyme samples were pre-incubated with iodoacetic acid for 10 min. After 60 min at 37 °C of mixture incubation, the reaction was halted with the addition of 1.5 mL mersalyl (5 mM), 0.02 mg/mL fast garnet reactive solution, and 2% Tween 20. The reaction was centrifuged (at 5000 rpm, 6 min), then the absorbance was determined (at 520 nm). The activity of cysteine proteinase was measured using an ELISA quick plate reader at the OD520/60 min/mg of midgut protein. As a blank, a test mixture devoid of enzyme was used. […] The fourth homogenates of midgut larval were produced as reported before in the experiment for determining enzyme activity. As previously disclosed, the inhibitory experiment was performed using a microplate assay. A series of inhibitor concentrations was created to determine the inhibitor’s maximal inhibitory effect. Leupeptin concentrations of 0.01, 0.05, 0.1, and 1.0 mM, PMSF concentrations of 0.1, 1.0, 10, and 50 mM, TLCK and TPCK concentrations of 0.01, 0.05, 0.1, 1, 50, and 100 mM, EDTA concentrations of 0.1, 1, 10, 50, and 100 mM, and iodoacetic acid concentrations of 0.01, 0.05, 0.1, and 1 mM.
As a control, an assay combination devoid of inhibitors was utilized. The absorbance of the enzymes was determined using an ELISA plate quick reader at various wavelengths. The percentage activity of the control enzyme for each inhibitor was evaluated for each enzyme. Protease activity was assayed in vivo in the R. ferrugineus fourth midgut larval instars, which were treated with 1, 10, 50, 100, 500, 1000, and 5000 mg/L of extracts or compounds, measured as described above. Larvae were exposed for 24 h to leaf discs treated with extract and compounds.

[6] = tested on: trypsin-like serine proteinase; assay: Trypsin-like activity of midgut from larvae treated 24 h (in vivo); set-up: species or system Rhynchophorus ferrugineus; settings: midgut of fourth instar larvae treated for 24 h
Procedure: (§2) The midguts were homogenized in the assay buffer (100 mM Tris-HCl, pH 8.1) and centrifuged for 30 min at 8000 rpm (Sigma 3K 30, rotors No. 12158). […] […] (100 mg/mL in DMF), BAρNA (100 mg/mL in DMSO), and […] (100 mg/mL in DMF) stock substrates were diluted in the assay buffer to 1 mg/mL, and substrate volume was 50 μL. […] The activity was quantified using an ELISA plate reader at a wavelength of 405 nm. As an empty well, an assay combination containing a denaturation enzyme was utilized instead of an active enzyme. […] To learn more about the proteases found in homogenate preparations of R. ferrugineus fourth midgut larval instars, inhibitors from many different types of mechanisms were used. […] As a control, an assay combination devoid of inhibitors was utilized. The absorbance of the enzymes was determined using an ELISA plate quick reader at various wavelengths. The percentage activity of the control enzyme for each inhibitor was evaluated for each enzyme. […] Larvae were exposed for 24 h to leaf discs treated with extract and compounds.

metalloprotease [7] = assay: Metalloproteinase activity, azocasein (in vitro); type: biochemical, Rhynchophorus ferrugineus; settings: fourth instar larvae midgut homogenate
Procedure: (§3) A substrate azocasein assessed the metalloproteinases activity in the fourth midgut instar larval homogenate. Ten larvae were carefully removed, dissected, and rinsed repeatedly with NaCl solution (0.9% (w/v). […] After homogenization, the homogenates were centrifuged at 5000 rpm (for 30 min) using a Sigma centrifuge 3k30, and the supernatant was utilized to determine enzyme activity and protein content. The supernatant per experiment (10 µL) was incubated for 20 min at 37 °C, and the volume was adjusted to 60 µL using assay buffer pH 8 before adding azocasein (200 µL, 2% (w/v)). In all instances, 10 µL enzyme samples were incubated for 10 min (except EDTA with 20 min), and EDTA was used as a blocker of metalloproteinase activity before being added to the specific substrate. The reaction was interrupted with 300 µL of trichloroacetic acid (TCA cold, 10% (v/v) and continued at 37 °C for 180 min. The reaction mixture was then centrifuged at 5000 rpm for 20 min (Sigma centrifuge 3k30), sodium hydroxide (10 µL of 10 N) was incorporated into the supernatant, then absorbance was determined using an ELISA plate reader at 450 nm. As a blank, an assay mixture devoid of the enzyme was devoted, the specific activity was determined using the OD450 mg^−1 protein min^−1 value, and a blank solution sample devoid of enzyme solution was determined. To learn more about the proteases found in homogenate preparations of R. ferrugineus fourth midgut larval instars, inhibitors from many different types of mechanisms were used. […] As a control, an assay combination devoid of inhibitors was utilized. The absorbance of the enzymes was determined using an ELISA plate quick reader at various wavelengths. The percentage activity of the control enzyme for each inhibitor was evaluated for each enzyme. […] Larvae were exposed for 24 h to leaf discs treated with extract and compounds.

metalloprotease [8] = assay: Metalloprotease activity of midgut from larvae treated 24 h (in vivo); set-up: species or system Rhynchophorus ferrugineus; settings: midgut of fourth instar larvae treated for 24 h
Procedure: as §3

[9] = molecular target: trypsin-like serine proteinase; assay: Serine proteinase microplate assay, BApNA (in vitro); type: biochemical, Rhynchophorus ferrugineus; settings: fourth instar larvae midgut homogenate
Procedure: as §2, with “The specific activities of serine proteinase were determined using a rapid quick microplate assay with substrates in reaction mixtures (150 μL) including a serine protease assay buffer, according to […] et al. and Olga et al. with modifications. The midguts” for “The midguts”

SMILES: Cc1ccc(S(=O)(=O)N[C@@H](CCCCN)C(=O)CCl)cc1 [TLCK]
effect of specific inhibitor on midgut proteases [1]: dramatically suppressed

SMILES: Cc1ccc(S(=O)(=O)N[C@@H](Cc2ccccc2)C(=O)CCl)cc1 [TPCK]
effect of specific inhibitor on midgut proteases [1]: dramatically suppressed

IC50 against cysteine protease (in vitro) (cysteine protease [5]): 58.2 µg/mL
IC50 against metalloprotease (in vitro) (metalloprotease [7]): 119.4 µg/mL
IC50 against trypsin-like serine proteinase (in vitro) [9]: 57.4 µg/mL
SMILES: C[C@H]1[C@H](C)CC[C@]2(C(=O)O)CC[C@]3(C)C(=CC[C@@H]4[C@@]5(C)CC[C@H](O)C(C)(C)[C@@H]5CC[C@]43C)[C@H]12 [Ursolic acid]
IC50 against cysteine protease (in vivo) (cysteine protease [2]): 685.2 µg/mL
IC50 against total proteases (in vitro) (total proteases [3]): 67.2 µg/mL
IC50 against total proteases (in vivo) (total proteases [4]): 279.5 µg/mL
IC50 against trypsin-like serine proteinase (in vivo) [6]: 235.1 µg/mL
IC50 against metalloprotease (in vivo) (metalloprotease [8]): 548.3 µg/mL

SMILES: O=C(O)CI [iodoacetic acid]
effect of specific inhibitor on midgut proteases [1]: dramatically suppressed
